Among the data in patent publication US7884118B2, “1-cycloalkyl-5-iodotetrazoles” (LANXESS Deutschland GmbH, priority 2005, dated 2011) are melting point and MIC values, retold here.

One data set deals with Chaetomium globosum. Nature of the data set: Minimum inhibitory concentration (MIC) against fungi, malt extract agar. Format: cell-based. The note with it: 336 h, 2 weeks at 28° C., 60 to 70% relative atmospheric humidity, read-out: Minimum inhibitory concentrations Chaetomium globosum. How it is done:
(§1) In each case, the active compounds according to the invention, in concentrations of from 0.1 mg/l to 5000 mg/l, were added to an agar which had been prepared using malt extracts. The MIC was determined after 2 weeks of storage at 28° C. and 60 to 70% relative atmospheric humidity. The MIC is the lowest concentration of active compound at which there is no colonization by the microbial species used.

Another data set has as its system Penicillium brevicaule. The description is as above. The note with it: 336 h, 2 weeks at 28° C., 60 to 70% relative atmospheric humidity, read-out: Minimum inhibitory concentrations Penicillium brevicaule. In kind it is cell-based. Here is the method: as §1
The next data set concerns Aspergillus niger. Described as above. In kind it is cell-based. The note with it: 336 h, 2 weeks at 28° C., 60 to 70% relative atmospheric humidity, read-out: Minimum inhibitory concentrations Aspergillus niger. How it is done:
as §1

The term melting point denotes the temperature of the solid-liquid transition. In turn, `Ic1nnnn1C1CCCC1` [Example 1, 1-Cyclopentyl-5-iodotetrazole] came in with a melting point of 119 °C. The MIC in the data set with Chaetomium globosum was below 20 µg/mL. Further, in the data set on Penicillium brevicaule, the MIC is below 20 µg/mL. Besides, the MIC in the data set on Aspergillus niger is below 20 µg/mL.
